{
  "source": "patent US20160205931A1",
  "about": "“SEX PHEROMONE DERIVATIVES, AND METHODS AND USES THEREOF” (Her Majesty the Queen in Right of Canada, as rep. by the …, priority 2015, published 2016)",
  "key": {"[1]": {"system": "male and female EAB antennae", "experiment": "Electroantennography (EAG), puff technique", "parameters": "species or system Agrilus planipennis", "conditions": "for electroantennogram activity with male or female EABs: compared with controls / with the (3Z)- and (3E)-lactones", "protocol": "Electroantennogram analyses (EAG) were conducted using methods and equipment generally described by Silk et al. in 2007 (Silk P J, et al (2007) Evidence for a male-produced pheromone in Tetropium fuscum (F.) (Coleoptera: Cerambycidae). Naturwissenschaften 94: 697-701). Antennae were excised close to the head and mounted using electrode gel (Spectra 360 electrode gel; Parker, Fairfield, N.J., USA) on an EAG probe (gold) for electrical contact. EAG signals were recorded using Syntech recording and analysis software v. 2.6 (Syntech, Hilversum, The Netherlands).\nThe (3Z)- and (3E)-lactones, and dodecan-12-olide were tested using the puff technique described by Silk et al. in 2011 (Silk P J, Ryall K, Mayo P, Lemay M, Grant G, Crook D, Cossé A, Fraser I, Sweeney J D, Lyons D B, Pitt D, Scarr T, Magee D (2011) Evidence for a volatile pheromone in Agrilus planipennis Fairmaire (Coleoptera: Buprestidae) that increases attraction to a host foliar volatile. Env Entomol 40: 904-916). Briefly: two microliters of serially diluted solutions (dichloromethane; DCM) of synthetic compounds were applied to filter paper strips (0.5 cm×5 cm, Whatman No. 1). The filter paper strips were placed in 14 cm long Pasteur pipettes, hereafter referred to as stimulus cartridges, after 5 min at room temperature. The stimulus dose tested was 1 μg. Male and female antennae were exposed to single 0.2 s puffs of odor-bearing air at 5 ml/s by placing the tip of a stimulus cartridge into a hole of a glass tube (0.7 cm ID×20 cm), 10 cm from the outlet and 11 cm away from the antennal preparation. Airflow through the glass tube was passed through a water bubbler and set at 10 ml/s. Each antennal preparation was tested with freshly prepared sets of stimuli cartridges using ˜6 male and ˜10 female antennae/treatment and used once for each treatment.\n(§1) For the EAG results, male and female EAG responses were submitted to analysis of variance (ANOVA) and mean responses to each of the tested compounds separated using Tukey's test (P<0.05). […] Finally, in the trapping study, numbers of male and female EAB captured among the three treatments were analyzed separately by fitting generalized linear mixed effect models, with block as a random factor, to the Poisson distribution (GLMER function, R Development Core Team 2013). Chi-square tests were used to determine if a significant proportion of the variation in capture of male and female EAB was attributable to treatment. Chi-square tests were considered significant at P=0.05 or less and, if significant, the means separated using the Tukey's contrast option in the GLHT function (R Development Core Team 2013); raw data are presented as means±standard error."}, "adult EAB": {"system": "adult EAB", "experiment": "Two-choice Y-tube olfactometer bioassay", "type": "in vivo, Agrilus planipennis", "conditions": "1 μg stimulus", "protocol": "A Y-tube olfactometer (Analytical Research Systems Inc, Micanopy, Fla., USA) was used to test for short-range attraction of adult EAB to the lactones. […] Each arm was connected to a cylinder that contained the stimulus. Charcoal-filtered air was passed into each arm at a flow rate of 1.2 L/min. Treatments were 1 μg each of (3Z)-lactone, (3E)-lactone, and dodecan-12-olide. Each stimulus was diluted in dichloromethane, placed on a strip of filter paper, and given 1 min for the solvent to evaporate before being placed in the olfactometer. A filter paper with only solvent (control) was placed in the other arm of the olfactometer. The apparatus was rinsed with acetone after each treatment, and the arm attached to the test stimulus was randomized between replicates. For each trial, a single EAB (male or female) was given 10 min to choose between the two stimuli. A choice was recorded when the beetle passed a “finish line”, 7 cm beyond the branching point of each arm. […] Beetles were 8-14 d old, and 18-23 beetles were used per treatment.\nas §1"}, "Release rate of lures": {"experiment": "Release rate of lures", "type": "physicochemical", "conditions": "25° C.", "protocol": "Traps were baited with one of three treatments: 1) (3Z)-hexenol alone; 2) 3.0 mg dose of (3Z)-lactone+(3Z)-hexenol; or 3) dodecan-12-olide+(3Z)-hexenol. The dodecan-12-olide dose was 3.0 mg or 5.0 mg. A higher dose of the analog was used to attempt to increase its effect on captures of EAB relative to the (3Z)-lactone. (3Z)-Lactone and the analog were each loaded onto rubber septa lures (Wheaton Scientific, Millville, N.J.). (3Z)-Hexenol lures were obtained from Synergy Semiochemicals. Release rates of the 3.0 mg (3Z)-lactone, 3.0 mg and 5.0 mg dodecan-12-olide lures, and (3Z)-hexenol were ˜66 μg/d, ˜60 μg/d and ˜80 μg/d. These values were determined as in Silk et al. 2011, and 50-100 mg/d (by weight loss), respectively, at 25° C. The (3Z)-lactone and analog lures were estimated to maintain sustained and almost constant release rates for a minimum of 6 wk, and thus were not replaced during the experiment. Similarly, (3Z)-hexenol lures were not replaced during the experiment."}, "EAB": {"system": "EAB", "experiment": "Field trapping studies, dark green sticky prism traps co-baited with (3Z)-hexenol", "type": "in vivo, Agrilus planipennis", "protocol": "Three trapping experiments were conducted to test the effects of (3Z)-lactone and dodecan-12-olide on mean captures of EAB on dark green sticky prism traps using protocols discussed by Francese et al. in 2010 (Francese J A, Crook D J, Fraser I, Lance D A, A. J. Sawyer A J, Mastro V C (2010a) Optimization of trap color for the emerald ash borer, Agrilus planipennis (Coleoptera: Buprestidae). J Econ Entomol 103: 1235-1241) co-baited with (3Z)-hexenol. Urban street trees were used: trees were 20-40 cm in diameter, and 10-16 m in height. […] Dark green prism sticky traps (0.30×25.00×58.75 cm) (Synergy Semiochemicals Corp., Burnaby, British Columbia) were used in all field trials. Traps were spaced˜25 m apart, and lure treatments replicated in a randomized complete block design. Traps were deployed using either a limb hook over a lower to mid-canopy branch or a single rope over a mid-canopy branch. In both years, traps were checked every 2 wk and all EAB were collected, counted, and sexed.\nTraps were baited with one of three treatments: 1) (3Z)-hexenol alone; 2) 3.0 mg dose of (3Z)-lactone+(3Z)-hexenol; or 3) dodecan-12-olide+(3Z)-hexenol. The dodecan-12-olide dose was 3.0 mg or 5.0 mg. A higher dose of the analog was used to attempt to increase its effect on captures of EAB relative to the (3Z)-lactone. (3Z)-Lactone and the analog were each loaded onto rubber septa lures (Wheaton Scientific, Millville, N.J.). (3Z)-Hexenol lures were obtained from Synergy Semiochemicals. […] These values were determined as in Silk et al. 2011, and 50-100 mg/d (by weight loss), respectively, at 25° C. […]\nFor the EAG results, male and female EAG responses were submitted to analysis of variance (ANOVA) and mean responses to each of the tested compounds separated using Tukey's test (P<0.05). […] Finally, in the trapping study, numbers of male and female EAB captured among the three treatments were analyzed separately by fitting generalized linear mixed effect models, with block as a random factor, to the Poisson distribution (GLMER function, R Development Core Team 2013). […]"}},
  "data": [
    {"smiles": "O=C1C/C=C\\CCCCCCCCO1", "note": "[(3Z)-lactone, (3Z)-dodecen-12-olide, reference compound]", "values": [
      {"measurement": "electroantennogram activity with male or female EABs", "setting": "[1]", "value": "active"}
    ]},
    {"smiles": "O=C1CCCCCCCCCCCCCCO1", "note": "[pentadecan-15-olide, reference compound]", "values": [
      {"measurement": "electroantennogram activity with male or female EABs", "setting": "[1]", "value": "not significantly different from the controls"}
    ]},
    {"smiles": "O=C1C/C=C/CCCCCCCCO1", "note": "[(3E)-lactone, (3E)-dodecen-12-olide, reference compound]", "values": [
      {"measurement": "proportion of the beetles that chose the stimulus arm", "setting": "adult EAB; about 25% chose the control, no-choice beetles excluded, sex not given", "value": "about 75%"},
      {"measurement": "electroantennogram activity with male or female EABs", "setting": "[1]", "value": "active"}
    ]},
    {"smiles": "CC/C=C\\CCO", "note": "[(3Z)-hexenol, reference compound]", "values": [
      {"measurement": "release rate of lure", "setting": "Release rate of lures; by weight loss", "value": "50000 to 100000", "unit": "µg/day"}
    ]},
    {"smiles": "O=C1/C=C/CCCCCCCCCO1", "note": "[2E-dodecan-12-olide]", "values": [
      {"measurement": "electroantennogram activity with male or female EABs", "setting": "[1]", "value": "not significantly different from the controls"}
    ]},
    {"smiles": "O=C1CCCCCCCCCCCO1", "note": "[dodecan-12-olide]", "values": [
      {"measurement": "attraction of female EAB to stimulus vs solvent control", "setting": "adult EAB; females, 10 min choice, chi-square vs 1:1, FIG. 6", "value": "attracted"},
      {"measurement": "attraction of male EAB to stimulus vs solvent control", "setting": "adult EAB; males, 10 min choice, chi-square vs 1:1, FIG. 5", "value": "attracted"},
      {"measurement": "mean EAG responses of male and female EAB antennae", "setting": "[1]; 1 μg source concentration, vs solvent control (dichloromethane), responses to the three compounds not significantly different from each other (Tukey's), FIG. 4", "value": "significantly greater than those to the solvent control"},
      {"measurement": "electroantennogram activity with male or female EABs", "setting": "[1]", "value": "comparable to the corresponding electroantennogram activity both the natural (3Z)-lactone and the (3E)-lactone analog"},
      {"measurement": "release rate of lure", "setting": "Release rate of lures; 3.0 mg on rubber septa lure", "value": "~60", "unit": "µg/day"},
      {"measurement": "release rate of lure", "setting": "Release rate of lures; 5.0 mg on rubber septa lure", "value": "~80", "unit": "µg/day"},
      {"measurement": "females captured vs the other two treatments", "setting": "EAB; FIG. 7a, 3 mg per lure, co-baited with (3Z)-hexenol", "value": "significantly more females were captured"},
      {"measurement": "females captured vs (3Z)-hexenol alone", "setting": "EAB; FIG. 7b, dodecan-12-olide 5 mg, (3Z)-lactone 3 mg per lure, P<0.01", "value": "more females were captured"},
      {"measurement": "activity relative to the natural (3Z)-lactone under comparable conditions", "setting": "EAB; field trial, 3 mg per lure, male captures", "value": "about 85%"}
    ]}
  ]
}
